Experimental data published in ChEMBL document CHEMBL4613209, “Quinolone hybrids and their anti-cancer activities: An overview” (Eur J Med Chem, 2019).

What was measured:
[1] = molecular target: RAC-alpha serine/threonine-protein kinase (Homo sapiens, UniProt P31749); test: Inhibition of PKBalpha (unknown origin)
[2] = molecular target: RAC-beta serine/threonine-protein kinase (Homo sapiens, UniProt P31751); test: Inhibition of PKBbeta (unknown origin)
[3] = molecular target: RAC-gamma serine/threonine-protein kinase (Homo sapiens, UniProt Q9Y243); test: Inhibition of PKBgamma (unknown origin)
Sequence of RAC-gamma serine/threonine-protein kinase (Q9Y243 whole entry): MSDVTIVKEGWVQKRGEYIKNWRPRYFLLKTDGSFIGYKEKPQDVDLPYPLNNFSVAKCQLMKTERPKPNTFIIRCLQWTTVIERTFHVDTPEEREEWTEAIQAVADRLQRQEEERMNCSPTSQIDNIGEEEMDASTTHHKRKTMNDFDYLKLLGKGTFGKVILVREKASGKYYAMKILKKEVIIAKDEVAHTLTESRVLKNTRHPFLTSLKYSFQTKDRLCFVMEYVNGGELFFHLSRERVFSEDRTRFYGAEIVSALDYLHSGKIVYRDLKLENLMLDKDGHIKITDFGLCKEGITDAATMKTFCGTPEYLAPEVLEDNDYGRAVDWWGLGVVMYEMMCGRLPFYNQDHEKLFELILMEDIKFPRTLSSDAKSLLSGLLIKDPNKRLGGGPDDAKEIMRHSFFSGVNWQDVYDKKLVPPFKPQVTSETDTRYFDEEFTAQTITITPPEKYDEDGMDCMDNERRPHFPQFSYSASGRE

[4] = molecular target: T1, Inhibitor of nuclear factor kappa-B kinase subunit alpha (Homo sapiens, UniProt O15111); test: Inhibition of IKKalpha (unknown origin)
T1 sequence (O15111 whole entry): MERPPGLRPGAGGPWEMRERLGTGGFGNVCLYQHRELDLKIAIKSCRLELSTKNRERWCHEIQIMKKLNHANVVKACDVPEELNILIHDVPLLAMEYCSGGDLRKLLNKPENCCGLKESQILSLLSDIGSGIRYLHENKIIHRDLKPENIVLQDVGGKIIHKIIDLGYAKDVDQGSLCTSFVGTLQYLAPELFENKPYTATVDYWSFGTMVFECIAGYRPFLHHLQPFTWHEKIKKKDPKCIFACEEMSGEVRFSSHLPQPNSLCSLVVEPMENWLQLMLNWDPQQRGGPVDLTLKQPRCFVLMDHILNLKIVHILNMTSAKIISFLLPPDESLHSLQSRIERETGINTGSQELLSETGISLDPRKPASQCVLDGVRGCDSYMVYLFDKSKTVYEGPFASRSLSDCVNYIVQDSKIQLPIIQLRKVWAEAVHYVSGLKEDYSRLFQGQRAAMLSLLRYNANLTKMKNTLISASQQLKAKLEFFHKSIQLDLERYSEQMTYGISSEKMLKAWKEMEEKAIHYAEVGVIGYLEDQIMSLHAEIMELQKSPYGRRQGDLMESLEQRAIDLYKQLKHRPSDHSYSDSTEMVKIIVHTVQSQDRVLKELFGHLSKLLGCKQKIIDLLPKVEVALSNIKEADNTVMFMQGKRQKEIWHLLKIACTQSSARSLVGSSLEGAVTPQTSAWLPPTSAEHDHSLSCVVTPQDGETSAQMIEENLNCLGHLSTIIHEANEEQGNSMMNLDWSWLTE

[5] = molecular target: T2, Inhibitor of nuclear factor kappa-B kinase subunit beta (Homo sapiens, UniProt O14920); test: Inhibition of IKKbeta (unknown origin)
T2 sequence (O14920 whole entry): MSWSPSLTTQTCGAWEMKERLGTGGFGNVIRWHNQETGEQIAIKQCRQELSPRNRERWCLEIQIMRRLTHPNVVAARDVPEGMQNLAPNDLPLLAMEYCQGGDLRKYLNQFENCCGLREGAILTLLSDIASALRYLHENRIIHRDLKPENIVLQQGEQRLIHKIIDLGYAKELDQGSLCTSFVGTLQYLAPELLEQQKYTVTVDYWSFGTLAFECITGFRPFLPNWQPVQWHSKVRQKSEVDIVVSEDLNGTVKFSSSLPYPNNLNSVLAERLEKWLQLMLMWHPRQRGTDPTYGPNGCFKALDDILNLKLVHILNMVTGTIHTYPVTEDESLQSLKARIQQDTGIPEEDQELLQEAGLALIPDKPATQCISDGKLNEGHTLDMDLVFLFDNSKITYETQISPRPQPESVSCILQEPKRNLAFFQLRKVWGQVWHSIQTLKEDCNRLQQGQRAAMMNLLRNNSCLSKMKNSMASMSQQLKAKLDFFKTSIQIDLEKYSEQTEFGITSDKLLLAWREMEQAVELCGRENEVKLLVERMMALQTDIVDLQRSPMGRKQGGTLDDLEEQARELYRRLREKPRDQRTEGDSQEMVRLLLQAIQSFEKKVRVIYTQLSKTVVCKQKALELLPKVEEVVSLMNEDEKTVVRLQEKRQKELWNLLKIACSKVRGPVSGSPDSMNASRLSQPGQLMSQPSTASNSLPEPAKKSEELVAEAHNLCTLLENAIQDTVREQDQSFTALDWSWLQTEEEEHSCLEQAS

MCF7 [6] = test: Cytotoxicity against human MCF7 cells assessed as reduction in cell viability; format: functional, cell-based
A549 [7] = test: Cytotoxicity against human A549 cells assessed as reduction in cell viability; format: functional, cell-based
MCF7 [8] = test: Cytotoxicity against human MCF7 cells assessed as reduction in cell viability after 48 hrs by MTT assay; format: functional, cell-based; details: MCF7, 48 h
T47D = test: Cytotoxicity against human T47D cells assessed as reduction in cell viability after 48 hrs by MTT assay; format: functional, cell-based
MDA-MB-231 = test: Cytotoxicity against human MDA-MB-231 cells assessed as reduction in cell viability after 48 hrs by MTT assay; format: functional, cell-based; details: MDA-MB-231, 48 h
MCF7 [9] = test: Cytotoxicity against human MCF7 cells assessed as reduction in cell viability after 72 hrs by MTT assay; format: functional, cell-based; details: MCF7, 72 h
ACHN = test: Cytotoxicity against human ACHN cells assessed as reduction in cell viability after 72 hrs by MTT assay; format: functional, cell-based
A 172 = test: Cytotoxicity against human A172 cells assessed as reduction in cell viability after 72 hrs by MTT assay; format: functional, cell-based; details: A 172, 72 h
SK-MEL3 = test: Cytotoxicity against human SK-MEL-3 cells assessed as reduction in cell viability after 72 hrs by MTT assay; format: functional, cell-based; details: SK-MEL3, 72 h
KB = test: Cytotoxicity against human KB cells assessed as reduction in cell viability after 72 hrs by MTT assay; format: functional, cell-based
A549 [10] = test: Cytotoxicity against human A549 cells assessed as reduction in cell viability after 72 hrs by MTT assay; format: functional, cell-based; details: A549, 72 h
A2780 = test: Cytotoxicity against human A2780 cells assessed as reduction in cell viability after 72 hrs by MTT assay; format: functional, cell-based; details: A2780, 72 h
A549 [11] = test: Antiproliferative activity against human A549 cells by CCK8 assay; format: functional, cell-based
HepG2 = test: Antiproliferative activity against human HepG2 cells by CCK8 assay; format: functional, cell-based
MCF7 [12] = test: Antiproliferative activity against human MCF7 cells by CCK8 assay; format: functional, cell-based
PC-3 = test: Antiproliferative activity against human PC3 cells by CCK8 assay; format: functional, cell-based
HeLa = test: Antiproliferative activity against human HeLa cells by CCK8 assay; format: functional, cell-based
MCF-10A = test: Antiproliferative activity against human MCF10A cells by CCK8 assay; format: cell-based

Measured: IC50

Sequence of RAC-alpha serine/threonine-protein kinase (P31749 whole entry): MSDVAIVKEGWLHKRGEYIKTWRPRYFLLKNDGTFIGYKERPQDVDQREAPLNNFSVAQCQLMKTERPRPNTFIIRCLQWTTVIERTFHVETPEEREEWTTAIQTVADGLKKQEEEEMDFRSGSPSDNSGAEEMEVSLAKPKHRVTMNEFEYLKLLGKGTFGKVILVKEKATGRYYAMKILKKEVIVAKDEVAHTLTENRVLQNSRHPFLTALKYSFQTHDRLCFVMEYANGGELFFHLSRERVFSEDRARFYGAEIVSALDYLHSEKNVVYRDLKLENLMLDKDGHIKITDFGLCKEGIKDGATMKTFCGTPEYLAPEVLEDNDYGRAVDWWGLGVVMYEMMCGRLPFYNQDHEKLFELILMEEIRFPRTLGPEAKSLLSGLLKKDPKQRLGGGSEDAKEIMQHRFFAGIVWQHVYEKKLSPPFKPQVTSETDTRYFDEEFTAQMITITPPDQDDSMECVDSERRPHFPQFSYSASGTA
Sequence of RAC-beta serine/threonine-protein kinase (P31751 whole entry): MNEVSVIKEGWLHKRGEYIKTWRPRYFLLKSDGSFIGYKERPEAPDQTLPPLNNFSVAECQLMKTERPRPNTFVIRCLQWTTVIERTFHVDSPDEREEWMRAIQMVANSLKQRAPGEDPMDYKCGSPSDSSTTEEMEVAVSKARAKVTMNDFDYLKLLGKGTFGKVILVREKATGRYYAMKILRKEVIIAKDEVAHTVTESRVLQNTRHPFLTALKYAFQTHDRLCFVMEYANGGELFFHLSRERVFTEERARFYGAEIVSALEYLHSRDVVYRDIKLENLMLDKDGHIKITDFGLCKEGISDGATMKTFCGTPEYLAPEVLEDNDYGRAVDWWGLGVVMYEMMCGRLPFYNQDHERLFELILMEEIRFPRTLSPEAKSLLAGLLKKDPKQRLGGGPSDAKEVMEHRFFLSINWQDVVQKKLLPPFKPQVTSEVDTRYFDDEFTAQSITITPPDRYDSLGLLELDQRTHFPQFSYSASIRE

O=C(/C=C/c1nc2ccccc2[nH]1)c1c(O)nc2ccc(Cl)cc2c1-c1ccccc1
1.64 to 44.5 µM: [1] | [2] | [3] | [4] | [5]

O=C(/C=C(O)/C=C/c1cc2ccccc2[nH]c1=O)/C=C/c1cc2ccccc2[nH]c1=O
31.5 µM: A549 [7]
69.1 µM: MCF7 [6]

COc1ccc(Cn2cc(Cn3c4ccccc4c(=O)c4cc(OC)ccc43)nn2)cc1
11 to 16.6 µM: MCF7 [8] | T47D | MDA-MB-231

O=C(O)c1cn(C2CC2)c2cc(N3CCN(C/C(=N/O)c4ccco4)CC3)c(F)cc2c1=O
> 100 µM: MCF7 [9] | ACHN | A 172 | SK-MEL3 | KB | A549 [10] | A2780

O=C(/C=C/c1nc2cc(F)c(F)cc2[nH]1)c1c(-c2ccc(F)cc2)c2cc(Cl)ccc2[nH]c1=O
1.64 to 44.5 µM: [1] | [2] | [3] | [4] | [5]

C[C@H]1COc2c(N3CCN(C)CC3)c(F)cc3c(=O)c(C(=O)OCc4cn(CCCCCCCC(=O)O)nn4)cn1c23
7.8 to 16.5 µM: A549 [11] | HepG2 | MCF7 [12] | PC-3 | HeLa
> 100 µM: MCF-10A

C[C@H]1COc2c(N3CCN(C)CC3)c(F)cc3c(=O)c(C(=O)OCc4cn(CCCCCC(=O)O)nn4)cn1c23
7.8 to 16.5 µM: A549 [11] | HepG2 | MCF7 [12] | PC-3 | HeLa
> 100 µM: MCF-10A

O=C(/C=C/c1nc2ccccc2[nH]1)c1c(-c2ccccc2)c2cc(Br)ccc2[nH]c1=O
1.64 to 44.5 µM: [1] | [2] | [3] | [4] | [5]

COc1ccc2c(c1)c(=O)c1ccccc1n2Cc1cn(Cc2cc(OC)c(OC)c(OC)c2)nn1
> 100 µM: MCF7 [8] | T47D | MDA-MB-231

C[C@H]1COc2c(N3CCN(C)CC3)c(F)cc3c(=O)c(C(=O)NCc4cn(CCCCCC(=O)O)nn4)cn1c23
7.8 to 16.5 µM: A549 [11] | HepG2 | MCF7 [12] | PC-3 | HeLa
> 100 µM: MCF-10A

Cc1ccc2[nH]c(/C=C/C(=O)c3c(-c4ccccc4)c4cc(Cl)ccc4[nH]c3=O)nc2c1
1.64 to 44.5 µM: [1] | [2] | [3] | [4] | [5]

O=C(/C=C/c1nc2cc(F)ccc2[nH]1)c1c(-c2ccc(F)cc2)c2cc(F)ccc2[nH]c1=O
1.64 to 44.5 µM: [1] | [2] | [3] | [4] | [5]

COc1cc(Cn2cc(Cn3c4ccccc4c(=O)c4cccc(OC)c43)nn2)cc(OC)c1OC
> 100 µM: MCF7 [8] | T47D | MDA-MB-231

COc1cc(Cn2cc(Cn3c4ccccc4c(=O)c4cc(Cl)ccc43)nn2)cc(OC)c1OC
> 100 µM: MCF7 [8] | T47D | MDA-MB-231

COc1cc(Cn2cc(Cn3c4ccccc4c(=O)c4cc(Br)ccc43)nn2)cc(OC)c1OC
> 100 µM: MCF7 [8] | T47D | MDA-MB-231

COc1cc(Cn2cc(Cn3c4ccccc4c(=O)c4ccccc43)nn2)cc(OC)c1OC
> 100 µM: MCF7 [8] | T47D | MDA-MB-231

COc1cc(Cn2cc(Cn3c4ccccc4c(=O)c4cccc(F)c43)nn2)cc(OC)c1OC
> 100 µM: MCF7 [8] | T47D | MDA-MB-231

Cc1ccc2[nH]c(=O)c(C(=O)/C=C/c3nc4ccccc4[nH]3)c(-c3ccccc3)c2c1
1.64 to 44.5 µM: [1] | [2] | [3] | [4] | [5]

CCn1cc(C(=O)O)c(=O)c2cc(F)c(N3CCN(C/C(=N/O)c4ccco4)CC3)cc21
> 100 µM: MCF7 [9] | ACHN | A 172 | SK-MEL3 | KB | A549 [10] | A2780

O=C(/C=C/c1nc2cc(F)ccc2[nH]1)c1c(-c2ccccc2)c2cc(Cl)ccc2[nH]c1=O
1.64 to 44.5 µM: [1] | [2] | [3] | [4] | [5]

O=C(/C=C/c1nc2cc(F)c(F)cc2[nH]1)c1c(-c2ccc(F)cc2)c2cc(F)ccc2[nH]c1=O
1.64 to 44.5 µM: [1] | [2] | [3] | [4] | [5]

C[C@H]1COc2c(N3CCN(C)CC3)c(F)cc3c(=O)c(C(=O)NCc4cn(CCCCCCC(=O)O)nn4)cn1c23
> 100 µM: MCF-10A
7.8 to 16.5 µM: A549 [11] | HepG2 | MCF7 [12] | PC-3 | HeLa

Cn1c(=O)c(C(=O)/C=C/c2nc3cc(F)ccc3[nH]2)c(-c2ccccc2)c2cc(Cl)ccc21
1.64 to 44.5 µM: [1] | [2] | [3] | [4] | [5]

C[C@H]1COc2c(N3CCN(C)CC3)c(F)cc3c(=O)c(C(=O)OCc4cn(CCCCCCC(=O)O)nn4)cn1c23
> 100 µM: MCF-10A
7.8 to 16.5 µM: A549 [11] | HepG2 | MCF7 [12] | PC-3 | HeLa

CCc1ccc2c(c1)c(=O)c1ccccc1n2Cc1cn(Cc2cc(OC)c(OC)c(OC)c2)nn1
> 100 µM: MCF7 [8] | T47D | MDA-MB-231

O=C(/C=C/c1nc2ccccc2[nH]1)c1c(-c2ccccc2)c2ccccc2[nH]c1=O
1.64 to 44.5 µM: [1] | [2] | [3] | [4] | [5]

C[C@H]1COc2c(N3CCN(C)CC3)c(F)cc3c(=O)c(C(=O)NCc4cn(CCCCCCCC(=O)O)nn4)cn1c23
7.8 to 16.5 µM: A549 [11] | HepG2 | MCF7 [12] | PC-3 | HeLa
> 100 µM: MCF-10A

O=C(/C=C/c1nc2cc(Br)ccc2[nH]1)c1c(-c2ccccc2)c2cc(Cl)ccc2[nH]c1=O
1.64 to 44.5 µM: [1] | [2] | [3] | [4] | [5]

O=C(/C=C/c1nc2cc(F)c(F)cc2[nH]1)c1c(-c2ccc(F)c(F)c2)c2cc(F)ccc2[nH]c1=O
1.64 to 44.5 µM: [1] | [2] | [3] | [4] | [5]

C[C@H]1COc2c(N3CCN(C)CC3)c(F)cc3c(=O)c(C(=O)O)cn1c23 [LEVOFLOXACIN]
64.2 to 100 µM: A549 [11] | HepG2 | MCF7 [12] | PC-3 | HeLa
25.2 µM: MCF-10A
